This experiment has as its target T1, human LPAR1 (Homo sapiens, UniProt Q92633).
T1 construct: host or cells: TangoEDG2-bla U2OS cells
Briefly: Arrestin assay (Arrestin Reporter EDG2-bla U2OS), inhibition of LPA-stimulated signal. It is filed as cell-based. The settings on record: TangoEDG2-bla U2OS cells expressing human LPAR1, 0.25 μM LPA. The essentials:
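TangoEDG2-bla U2OS cells (1×10^4/well, plated 18-20 h) were preincubated 1 h at 37 °C with compound (12-point, 3-fold, 10 μM to 0.00006 μM), then stimulated 3 h with 0.25 μM LPA final. LiveBLAzer FRET B/G 460/530 nm emission ratio gave % inhibition; IC50 from 4-parameter variable-slope fit.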

Where [1] appears, read: read-out: Arrestin Reporter EDG2-bla U2OS Human Merged IC50.

Read-outs that look alike come from different tables or passages of the source.

IC50 data for 18 molecules are collected here from patent publication US20260102383A1, “LPAR1 Inhibitors” (AbbVie Inc., priority 2024, published 2026).

T1 sequence (Q92633 whole entry): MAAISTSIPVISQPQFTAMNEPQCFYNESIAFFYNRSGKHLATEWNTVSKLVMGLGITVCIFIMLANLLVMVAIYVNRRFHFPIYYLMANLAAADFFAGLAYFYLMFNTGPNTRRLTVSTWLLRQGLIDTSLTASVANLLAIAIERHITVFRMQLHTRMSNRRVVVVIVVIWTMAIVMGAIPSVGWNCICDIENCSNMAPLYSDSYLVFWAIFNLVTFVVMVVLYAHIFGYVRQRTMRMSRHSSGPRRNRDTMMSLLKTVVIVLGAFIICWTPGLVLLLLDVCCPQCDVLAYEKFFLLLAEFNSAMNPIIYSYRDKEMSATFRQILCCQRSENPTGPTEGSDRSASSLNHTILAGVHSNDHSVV

The IC50 is the point on the concentration scale where inhibition reaches its midpoint. Regarding `COCCC(=O)N1CCC(CN2CCC(C(=O)Nc3ccc(Cl)cc3OC(F)F)(n3nccc3C(C)C)CC2)(C(=O)O)CC1` [Compound 54, 4-[[4-[[4-chloro-2-(difluoromethoxy)phenyl]carbamoyl]-4-(5-isopropylpyrazol-1-yl)-1-piperidyl]methyl]-1-(3-methoxypropanoyl) piperidine-4-carboxylic acid], under setting [1], the IC50 stood at 56.5 nM. Still for that read-out and setting: for `CCOC(=O)N1CC[C@@](CN2CCC(C(=O)Nc3ccc(Cl)cc3OC(F)F)(n3nccc3C(C)C)CC2)(C(=O)O)C1` [Compound 55, (3S)-3-[[4-[[4-chloro-2-(difluoromethoxy)phenyl]carbamoyl]-4-(5-isopropylpyrazol-1-yl)-1-piperidyl]methyl]-1-ethoxycarbonyl-pyrrolidine-3-carboxylic acid] the value was 4.57 nM. With `CCOC(=O)N1CC[C@](CN2CCC(C(=O)Nc3ccc(Cl)cc3OC(F)F)(n3nccc3C(C)C)CC2)(C(=O)O)C1` [Compound 56, (3R)-3-[[4-[[4-chloro-2-(difluoromethoxy)phenyl]carbamoyl]-4-(5-isopropylpyrazol-1-yl)-1-piperidyl]methyl]-1-ethoxycarbonyl-pyrrolidine-3-carboxylic acid], the IC50 under setting [1] was determined as 6.73 nM.

With `CC(C)c1ccnn1C1(C(=O)Nc2ccc(Cl)cc2OC(F)F)CCN(CC2(C(=O)O)CCN(C(=O)C34CC(C(C)C)(C3)C4)CC2)CC1` [Compound 57, 4-[[4-[[4-chloro-2-(difluoromethoxy)phenyl]carbamoyl]-4-(5-isopropylpyrazol-1-yl)-1-piperidyl]methyl]-1-(3-isopropylbicyclo[1.1.1]pentane-1-carbonyl)piperidine-4-carboxylic acid], under setting [1], the IC50 was 6.83 nM. As for `COC1(C(=O)N2CCC(CN3CCC(C(=O)Nc4ccc(Cl)cc4OC(F)F)(n4nccc4C(C)C)CC3)(C(=O)O)CC2)CC1` [Compound 58, 4-[[4-[[4-chloro-2-(difluoromethoxy)phenyl]carbamoyl]-4-(5-isopropylpyrazol-1-yl)-1-piperidyl]methyl]-1-(1-methoxycyclopropanecarbonyl) piperidine-4-carboxylic acid], the IC50 under setting [1] came out at 75.6 nM.

For `COCC1(C(=O)N2CCC(CN3CCC(C(=O)Nc4ccc(Cl)cc4OC(F)F)(n4nccc4C(C)C)CC3)(C(=O)O)CC2)CCC1` [Compound 59, 4-[[4-[[4-chloro-2-(difluoromethoxy)phenyl]carbamoyl]-4-(5-isopropylpyrazol-1-yl)-1-piperidyl]methyl]-1-[1-(methoxymethyl)cyclobutanecarbonyl] piperidine-4-carboxylic acid], under setting [1], the IC50 came out at 26.4 nM.

Take `COCC(OC)C(=O)N1CCC(CN2CCC(C(=O)Nc3ccc(Cl)cc3OC(F)F)(n3nccc3C(C)C)CC2)(C(=O)O)CC1` (stereo not drawn) [Compound 60, 4-[[4-[[4-chloro-2-(difluoromethoxy)phenyl]carbamoyl]-4-(5-isopropylpyrazol-1-yl)-1-piperidyl]methyl]-1-(2,3-dimethoxypropanoyl) piperidine-4-carboxylic acid]: under setting [1], the IC50 is 91.2 nM.

As to `CC(C)c1ccnn1C1(C(=O)Nc2ccc(Cl)cc2OC(F)F)CCN([C@H]2C[C@H](C(=O)O)C2)CC1` [Compound 62, (1r,3r)-3-[4-[[4-chloro-2-(difluoromethoxy)phenyl]carbamoyl]-4-(5-isopropylpyrazol-1-yl)-1-piperidyl]cyclobutanecarboxylic acid], under “read-out: Arrestin Reporter EDG2-bla U2OS Human IC50”, the IC50 was 51.5 nM.

In the case of `CC(C)c1ccnn1C1(C(=O)Nc2ccc(Cl)cc2OC(F)F)CCN(CC2(C(=O)O)Cc3ccccc3C2)CC1` [Compound 63, 2-[[4-[[4-chloro-2-(difluoromethoxy)phenyl]carbamoyl]-4-(5-isopropylpyrazol-1-yl)-1-piperidyl]methyl]indane-2-carboxylic acid], the IC50 under setting [1] was 4.5 nM. On the same count and under the same terms, for `CCC(=O)N1CC(CN2CCC(C(=O)Nc3ccc(Cl)cc3OC(F)F)(n3nccc3C(C)C)CC2)(C(=O)O)C1` [Compound 64, 3-[[4-[[4-chloro-2-(difluoromethoxy)phenyl]carbamoyl]-4-(5-isopropylpyrazol-1-yl)-1-piperidyl]methyl]-1-propanoyl-azetidine-3-carboxylic acid] the value was 51.5 nM.

Regarding `CC(C)c1ccnn1C1(C(=O)Nc2ccc(Cl)cc2OC(F)F)CCN(CC2(C(=O)O)CCS(=O)(=O)CC2)CC1` [Compound 65, 4-[[4-[[4-chloro-2-(difluoromethoxy)phenyl]carbamoyl]-4-(5-isopropylpyrazol-1-yl)-1-piperidyl]methyl]-1,1-dioxo-thiane-4-carboxylic acid], the IC50 under setting [1] was found to be 9.87 nM. Still for that read-out and setting: then `CC(C)c1c(F)cnn1C1(C(=O)Nc2ccc(Cl)cc2OC(F)F)CCN(CC2(C(=O)O)CCOCC2)CC1` [Compound 66, 4-[[4-[[4-chloro-2-(difluoromethoxy)phenyl]carbamoyl]-4-(4-fluoro-5-isopropyl-pyrazol-1-yl)-1-piperidyl]methyl]tetrahydropyran-4-carboxylic acid], with 22.8 nM; and `CCC(CC)(CN1CCC(C(=O)Nc2ccc(Cl)cc2OC(F)F)(n2nccc2C(C)C)CC1)C(=O)O` [Compound 67], with 20.9 nM.

`COC12CC(C(=O)N3CCC(CN4CCC(C(=O)Nc5ccc(Cl)cc5OC(F)F)(n5nccc5C(C)C)CC4)(C(=O)O)CC3)(C1)C2` [Compound 68, 4-[[4-[[4-chloro-2-(difluoromethoxy)phenyl]carbamoyl]-4-(5-isopropylpyrazol-1-yl)-1-piperidyl]methyl]-1-(3-methoxybicyclo[1.1.1]pentane-1-carbonyl)piperidine-4-carboxylic acid]: the IC50 under setting [1] amounted to 65.6 nM.

`CC(C)c1ccnn1C1(C(=O)Nc2ccc(Cl)cc2OC(F)F)CCN(CC2(C(=O)O)CCN(C(=O)C34CC(C3)C4)CC2)CC1` [Compound 69, 1-(bicyclo[1.1.1]pentane-1-carbonyl)-4-[[4-[[4-chloro-2-(difluoromethoxy)phenyl]carbamoyl]-4-(5-isopropylpyrazol-1-yl)-1-piperidyl]methyl]piperidine-4-carboxylic acid]: under setting [1], the IC50 turned out to be 14.8 nM. `CC(C)c1ccnn1C1(C(=O)Nc2ccc(Cl)cc2OC(F)F)CCN(CC2(C(=O)O)CC3CCC2C3)CC1` (stereo not drawn) [Compound 70, 2-[[4-[[4-chloro-2-(difluoromethoxy)phenyl]carbamoyl]-4-(5-isopropylpyrazol-1-yl)-1-piperidyl]methyl]norbomane-2-carboxylic acid]: the IC50 under setting [1] amounted to 11.4 nM. As to `CC(C)c1ccnn1C1(C(=O)Nc2ccc(Cl)cc2OC(F)F)CCN(CC2(C(=O)O)CCN(C(=O)C3CCOCC3)CC2)CC1` [Compound 71, 4-[[4-[[4-chloro-2-(difluoromethoxy)phenyl]carbamoyl]-4-(5-isopropylpyrazol-1-yl)-1-piperidyl]methyl]-1-(tetrahydropyran-4-carbonyl)piperidine-4-carboxylic acid], the IC50 under setting [1] is 105 nM. With `CC(C)c1ccnn1C1(C(=O)Nc2ccc(Cl)cc2OC(F)F)CCN(CC2(C(=O)O)CCN(C(=O)C34CC(F)(C3)C4)CC2)CC1` [Compound 72, 4-[[4-[[4-chloro-2-(difluoromethoxy)phenyl]carbamoyl]-4-(5-isopropylpyrazol-1-yl)-1-piperidyl]methyl]-1-(3-fluorobicyclo[1.1.1]pentane-1-carbonyl)piperidine-4-carboxylic acid], under setting [1], the IC50 was 18.8 nM.
